# Measurements taken from patent US20210214734A1, “METHODS FOR SELECTIVELY INHIBITING MOLECULAR CHAPERONE CLIENTS AND COMPOSITIONS FOR USE THEREOF” (Research Foundation for the State University of New York, priority 2020, published 2021).
# Entries after “also recorded” stand apart in the source; their conditions may differ. Where no end group is shown, it is not given here. [ ]: non-standard residue; d: D form. Phe(4-F) = N[C@@H](Cc1ccc(F)cc1)C(=O)O
# What was measured:
# GR:Hsp90 = test: GR dissociation from Hsp90 in 786-O cells; type: cell-based
# Procedure: (§1) Human embryonic kidney (HEK293) and 786-O cells were acquired from the American Type Culture Collection (ATCC). HEK293 cells were grown in Dulbecco's Modified Eagle Medium (DMEM, Millipore-Sigma) and 786-O cells were grown in Roswell Park Memorial Institute (RPMI-1640, Millipore-Sigma) medium supplemented with 10% fetal bovine serum (FBS, Millipore-Sigma) in a CellQ incubator (Panasonic Healthcare) at 37° C. in 5% CO2.
# (§2) Cultured cells were seeded 24 h prior to treatment. Peptides were added to cells at 50% confluency at the indicated concentrations and incubated for 24 h, followed by protein extraction as described below.
# (§3) Protein extraction from mammalian cells was carried out using methods previously described. See Woodford et al., Cell Reports, 14, 872-884 (2016). For immunoprecipitation, protein lysates were incubated with Hsp90 antibody for 2 h followed by incubation with protein G agarose (Qiagen) for 2 h at 4° C. Immunopellets were washed 4 times with fresh lysis buffer (20 mM Tris (pH7.4), 100 mM NaCl, 1 mM MgCl2, 0.1% NP40, protease inhibitor cocktail (Roche), and PhosSTOP (Roche)) and eluted with 5× Laemmli buffer. Precipitated proteins were separated by SDS-PAGE and transferred to nitrocellulose membranes. Co-immunoprecipitated proteins were detected by immunoblotting with the indicated antibodies, diluted in 5% non-fat dry milk reconstituted in TBST.
# full length human Hsp90 = test: 19F NMR R2 filter binding to Hsp90; design: 19F NMR signal change in presence of Hsp90 (binding): dose or concentration left out as unconfirmed; details: for 19F NMR signal change in presence of Hsp90 (binding): 19F R2 filter, peptides tested individually, A01
# Procedure: (§4) All the NMR experiments have been recorded at 298° K with a Bruker FT NMR Avance III 600-MHz spectrometer equipped with a 5-mm CryoProbe™ QCI^1H/^19F-^13C/^15N-D quadruple resonance, a shielded z-gradient coil, and the automatic sample handling system such as a SAMPLEJET™ brand sampling system with temperature control.
# (§5) ^19F NMR experiments are a well-recognized approach to study the interaction between small molecules or peptides and proteins. […] This is due to the large dynamic range defined as the difference of the NMR measured response in the free and protein-bound states. ^19F R2 filter NMR experiments are among the most sensitive techniques for weak binding detection. See Dalvit et al., Journal of American Chemical Society, 125, 7696-7703 (2003). The transverse relaxation rate R2 is a very sensitive parameter for these studies, due to the large Chemical Shift Anisotropy (CSA) of ^19F nucleus and to the large exchange contribution See Dalvit et al., Journal of American Chemical Society, 125, 7696-7703 (2003); the compounds/peptides that interact with the receptor will show a broadening and intensity reduction in their ^19F NMR signal in presence of the protein
# (§6) The 5 mM stock solution peptides were prepared in 100% in DMSOd6. Solubility and purity of the peptides in PBS buffer pH 7.4, 10% D2O (for the lock signal) were checked by ^19F and ^1H NMR spectroscopy. 1D ^19F NMR experiments were recorded with proton decoupling with the Waltz-16 scheme during the acquisition period with an acquisition time of 0.95 s, a relaxation delay of 30 s. whereas 1D version of the NOESY (nuclear Overhauser effect spectroscopy) pulse sequence with H2O signal presaturation, a mixing time of 10 ms and a relaxation delay of 30 s was used for ^1H NMR experiments.
# (§7) For the binding studies R2 filter experiments were recorded with the Carr-Purcell-Meibom-Gill scheme with a time interval of 23.5 ms between the 180° pulses with a loop of 2, an acquisition time of 0.95 s a D1 of 5 s and a number of scans of 512. All the ^19F chemical shifts are referenced to the CFCl3 signal in water.
# Cdc37 = biological target: T1, Cdc37 (Homo sapiens, UniProt Q16543); test: 19F NMR R2 filter binding to Cdc37; design: dose or concentration left out as unconfirmed
# T1 sequence (Q16543 1-378): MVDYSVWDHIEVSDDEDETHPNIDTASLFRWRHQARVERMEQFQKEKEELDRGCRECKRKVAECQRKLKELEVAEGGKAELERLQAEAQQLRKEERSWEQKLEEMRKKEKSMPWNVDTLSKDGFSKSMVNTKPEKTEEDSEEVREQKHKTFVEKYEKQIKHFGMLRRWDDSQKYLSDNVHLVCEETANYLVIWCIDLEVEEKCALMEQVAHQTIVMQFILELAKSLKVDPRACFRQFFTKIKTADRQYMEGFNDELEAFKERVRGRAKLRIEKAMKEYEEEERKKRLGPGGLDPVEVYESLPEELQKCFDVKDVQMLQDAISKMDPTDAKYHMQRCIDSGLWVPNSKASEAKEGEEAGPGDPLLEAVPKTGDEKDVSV
# Procedure: as §4, §5, §6, §7
# Aha1 = Aha1 (Homo sapiens, UniProt O95433); test: 19F NMR R2 filter binding to Aha1; details: cAbl peptides at 10 mM
# Procedure: as §4
# (§8) ^19F NMR experiments are a well-recognized approach to study the interaction between small molecules or peptides and proteins. […] This is due to the large dynamic range defined as the difference of the NMR measured response in the free and protein-bound states. ^19F R2 filter NMR experiments are among the most sensitive techniques for weak binding detection. […]
# as §6, with “Solubility and purity of the peptides in PBS buffer pH 7.4, 10% D2O (for the lock signal) were checked by ^19F and ^1H NMR spectroscopy.” left out
# (§9) For the binding studies R2 filter experiments were recorded with the Carr-Purcell-Meibom-Gill scheme with a time interval of 23.5 ms between the 180° pulses with a loop of 2, an acquisition time of 0.95 s a D1 of 5 s and a number of scans of 512. […]
# [1] = system: Hsp90 chaperone complexes (Hsp90, Cdc37, Aha1); test: 19F NMR binding to proteins of the Hsp90 chaperone system, single and mixed peptides
# Procedure: as §4, §8
# as §6, with “Solubility and purity of the peptides in PBS buffer pH 7.4, 10% D2O (for the lock signal) were checked by ^19F and ^1H NMR spectroscopy.” left out
# as §9
# [2] = biological target: Human Serum Albumin (HSA) (Homo sapiens, UniProt P02768); test: 19F NMR control for non-specific binding to HSA; details: 40 mM A01, A02 with 10 mM HSA
# Procedure: as §4, §5, §6, §7
# 786-O cells = test: Apoptosis by cleaved caspase-3 immunoblot in 786-O cells; type: cell-based; details: 786-O clear cell renal cell carcinoma cell line
# Procedure: as §1, §2, §3
# c-Abl = c-Abl protein level by immunoblot in treated HEK293 cells; type: cell-based, human; details: 10 μM A01 or A02 with and without TAT, 36 hours
# Procedure: as §1
# (§10) Cultured cells were seeded 24 h prior to treatment. […]
# as §3
# c-Abl-Hsp90 interaction = test: Hsp90 immunoprecipitation, c-Abl association in HEK293 cells; type: cell-based, human; details: 10 μM, 36 hours, IP of endogenous Hsp90
# Procedure: as §1, §10, §3
# c-Src = test: Immunoblot of unrelated client c-Src in HEK293 cells; type: cell-based, human; details: 10 μM, 36 hours, selectivity control
# Procedure: as §1, §10, §3
# Cdk4 = test: Immunoblot of unrelated client Cdk4 in HEK293 cells; type: cell-based, human; details: 10 μM, 36 hours, selectivity control
# Procedure: as §1, §10, §3
# Akt = test: Immunoblot of unrelated client Akt in HEK293 cells; type: cell-based, human; details: 10 μM, 36 hours, selectivity control
# Procedure: as §1, §10, §3
# Aha1-Hsp90 complex = test: Hsp90 immunoprecipitation, Aha1-Hsp90 complex in HEK293 cells; type: cell-based, human; details: 10 μM, 36 hours
# Procedure: as §1, §10, §3
# Hsp90α-FLAG = Hsp90α-FLAG (Homo sapiens, UniProt P07900); test: Biotinylated peptide streptavidin pulldown of Hsp90α; type: binding
# Procedure: (§11) Total cell lysates prepared as described above were incubated with the indicated amounts of biotinylated peptide at 4° C. for 1 h. Streptavidin agarose beads (ThermoScientific) were added and incubated 1 additional hour with gentle rotation. Bound Hsp90 was detected by immunoblotting as described herein.
# Hsp90β-FLAG = Hsp90β-FLAG (Homo sapiens, UniProt P08238); test: Biotinylated peptide streptavidin pulldown of Hsp90β; type: binding; details: lysate of HEK293 overexpressing Hsp90β-FLAG
# Procedure: as §11
# Sequence of Aha1 (O95433 whole entry, species assumed): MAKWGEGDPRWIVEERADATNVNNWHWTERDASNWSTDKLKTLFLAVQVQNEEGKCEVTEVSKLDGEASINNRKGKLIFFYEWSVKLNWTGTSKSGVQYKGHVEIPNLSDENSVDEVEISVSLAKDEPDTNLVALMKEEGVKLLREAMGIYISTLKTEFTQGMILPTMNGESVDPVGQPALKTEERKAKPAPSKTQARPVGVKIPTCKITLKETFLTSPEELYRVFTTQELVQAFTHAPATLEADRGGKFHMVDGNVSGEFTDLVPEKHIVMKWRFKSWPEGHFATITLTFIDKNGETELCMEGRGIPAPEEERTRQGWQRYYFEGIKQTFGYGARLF
# Sequence of Hsp90β-FLAG (P08238 whole entry): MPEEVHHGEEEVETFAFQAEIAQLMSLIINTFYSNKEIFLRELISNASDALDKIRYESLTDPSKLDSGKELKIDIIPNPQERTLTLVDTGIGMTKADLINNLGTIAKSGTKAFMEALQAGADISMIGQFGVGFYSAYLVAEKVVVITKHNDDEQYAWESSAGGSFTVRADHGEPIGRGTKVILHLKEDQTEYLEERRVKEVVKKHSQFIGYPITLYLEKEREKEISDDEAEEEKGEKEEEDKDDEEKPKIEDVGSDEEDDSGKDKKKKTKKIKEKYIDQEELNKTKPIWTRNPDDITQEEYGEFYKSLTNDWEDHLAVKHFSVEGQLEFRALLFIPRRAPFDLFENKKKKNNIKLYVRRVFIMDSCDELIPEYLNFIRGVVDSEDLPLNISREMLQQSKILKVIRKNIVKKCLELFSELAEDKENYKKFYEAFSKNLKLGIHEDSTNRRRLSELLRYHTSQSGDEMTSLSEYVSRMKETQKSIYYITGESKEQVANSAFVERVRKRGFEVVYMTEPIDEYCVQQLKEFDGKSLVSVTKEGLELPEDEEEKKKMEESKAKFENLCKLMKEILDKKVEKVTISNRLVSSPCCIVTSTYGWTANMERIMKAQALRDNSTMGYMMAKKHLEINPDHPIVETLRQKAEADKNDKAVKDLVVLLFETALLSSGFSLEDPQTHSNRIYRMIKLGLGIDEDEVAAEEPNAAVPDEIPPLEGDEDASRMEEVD
substance,measurement,setting,value
"TLPCGGTWRIMTGIE F(F)PEMLA (TLPCGGTWRIMTGIE[Phe(4-F)]PEMLA) [GR-01, glucocorticoid receptor mimic peptide]",GR dissociation from Hsp90,GR:Hsp90,showed GR dissociation from Hsp90
"YAGYDSSVPDSTWRIMTTLNMGGF(F)PEMLA (YAGYDSSVPDSTWRIMTTLNMGG[Phe(4-F)]PEMLA) [GR-02, glucocorticoid receptor mimic peptide]",19F NMR signal change in presence of Hsp90 (binding),full length human Hsp90,bound to all of the tested proteins
same,binding to Cdc37 by 19F NMR,Cdc37,highest effect on Cdc37; also recorded: binding effect is higher on CDC37
same,binding to Aha1 by 19F NMR,Aha1,bound to all of the tested proteins
same,binding to members of the Hsp90 chaperone complex by 19F NMR,"[1]; Hsp90, Cdc37, Aha1",binds to all the protein
same,competition among peptides when mixed (19F NMR signal variation vs single peptide),[1]; peptides mixed together and added to protein solution,No significant difference
same,GR dissociation from Hsp90,GR:Hsp90,showed GR dissociation from Hsp90
GYSTKPQLAGGGNVTAPTPQGF(F)QHSGS (GYSTKPQLAGGGNVTAPTPQG[Phe(4-F)]QHSGS) [B-Raf-01],19F NMR signal change in presence of Hsp90 (binding),full length human Hsp90,no or very weak interaction
same,binding interaction with HSA by 19F NMR,[2],no interactions were detected
same,binding interaction with HSA by 19F NMR,[2]; listed as Braf01-pep,do not interact with HSA
"GEMGKGGKGRVPYPGMVNREVLDQVERGF(F)RM (GEMGKGGKGRVPYPGMVNREVLDQVERG[Phe(4-F)]RM) [c-Src02, c-Src mimic peptide]",apoptosis (elevation of cleaved caspase-3),786-O cells,"except c-Src02, induced apoptosis"
"LGGGQF(F)GEVYGGVAVKTLGGGEFLDEAAVMK (LGGGQ[Phe(4-F)]GEVYGGVAVKTLGGGEFLDEAAVMK) [A01, F(F) = 4-Fluoro-L-phenylalanine]",binding to Hsp90 when A01 and A02 are mixed,"full length human Hsp90; 19F NMR, peptides mixed",continue to bind to Hsp90 even when they are mixed
same,19F NMR signal change in presence of Hsp90 (binding),full length human Hsp90,"decrease in the presence of Hsp90, indicating peptide-protein binding"
same,binding to Cdc37 by 19F NMR,Cdc37,showed the ability to bind Cdc37
same,binding to Aha1 by 19F NMR,Aha1,but not Aha1
same,binding interaction with HSA by 19F NMR,[2],neither A01 nor A02 showed binding interaction with HSA
same,binding interaction with HSA by 19F NMR,[2]; listed as AblO1,do not interact with HSA
same,c-Abl protein levels,c-Abl,decrease of c-Abl protein levels
same,dissociation of c-Abl from Hsp90,c-Abl-Hsp90 interaction,dissociation of c-Abl from Hsp90
same,c-Src stability or activity,c-Src,neither the related kinase c-Src nor the client kinases Cdk4 or Akt showed a defect in stability or activity
same,Cdk4 stability or activity,Cdk4,neither the related kinase c-Src nor the client kinases Cdk4 or Akt showed a defect in stability or activity
same,Akt stability or activity,Akt,neither the related kinase c-Src nor the client kinases Cdk4 or Akt showed a defect in stability or activity
same,Aha1-Hsp90 complex formation,Aha1-Hsp90 complex,decreased Aha1-Hsp90 complex formation
same,Hsp90 isoform specificity,"Hsp90α-FLAG; Hsp90α vs Hsp90β, biotinylated peptide pulldown",neither peptide demonstrates isoform specificity
same,binding to Hsp90α in pulldown,"Hsp90α-FLAG; biotinylated peptide, lysate of HEK293 overexpressing Hsp90α-FLAG",binds with higher affinity to both isoforms of Hsp90
same,binding to Hsp90β in pulldown,Hsp90β-FLAG,binds with higher affinity to both isoforms of Hsp90
